Read-outs that look alike come from different tables or passages of the source.
Test system: A375-Stat3-ER cells
Conditions: for effect on cell cycle profile: A375-Stat3-ER cells
Procedure: In brief, cells were harvested at the indicated times (24, 48 and 72 h) washed three times with ice-cold PBS and resuspended in propidium iodide buffer (1 mM sodium citrate (pH 4.0), 1.5 mM NaCl, 5 mM EDTA, 5 mM EGTA, 0.1% NP40, 4 mg/ml propidium iodide and 80 mg/ml of RNase A). After 30 min incubation in the dark on ice, cell cycle distribution was measured with a Becton Dickinson FACS can flow cytometer.

| Compound | Apoptotic cells (24 h) | G1 (change in percentage of cells) (24 h) | G2/M (change in percentage of cells) (24 h) | S (change in percentage of cells) (24 h) | Apoptotic cells (48 h) | G2/M (change in percentage of cells) (48 h) | S (change in percentage of cells) (48 h) | G1 (change in percentage of cells) (72 h) | G2/M (change in percentage of cells) (72 h) | S (change in percentage of cells) (72 h) | Apoptotic cells (72 h (3 days)) | effect on cell cycle profile | entry into S phase after release of cells synchronized in G1 (A375 Stat3-ER cells) |
| --- | --- | --- | --- | --- | --- | --- | --- | --- | --- | --- | --- | --- | --- |
| CCC(=C(c1ccc(O)cc1)c1ccc(OCCN(C)C)cc1)c1ccccc1 [4HT, 4-hydroxytamoxifen, reference compound] | <1% | +1% | +2% | −3% | <1% | −6% | +1% | −1% | +1% | 0% | <1% | only marginally affected | delayed relative to control cells |
| oncostatin M [OSM] |  |  |  |  |  |  |  |  |  |  |  | little effect |  |

— patent US20080064027A1, “TEL/Etv6-mediated inhibition of cell proliferation” (priority 2002, published 2008)
